Solubility and EC50 data for five compounds are collected here from ChEMBL document CHEMBL4420076, “Amylin and calcitonin receptor agonist” (2017).

The nature of data set [1]: Solubility in 100 mM bistrispropane buffer at pH 6.5 incubated for 18 hrs by UPLC analysis. The format is physicochemical.
The nature of data set [2]: Solubility in 100 mM glycylglycine buffer at pH 5.0 incubated for 18 hrs by UPLC analysis. It is filed as physicochemical.
A short description of data set [3]: Solubility in 100 mM glycylglycine buffer at pH 3.0 incubated for 18 hrs by UPLC analysis. The format is physicochemical.
Data set [4] in a line: Solubility in 100 mM bistrispropane buffer at pH 8.0 incubated for 18 hrs by UPLC analysis. The format is physicochemical.
Data set [5] can be described thus: Solubility in 100 mM bistrispropane buffer at pH 7.5 incubated for 18 hrs by UPLC analysis. It is filed as physicochemical.
A short description of data set [6]: Solubility in 100 mM bistrispropane buffer at pH 7.0 incubated for 18 hrs by UPLC analysis. It is filed as physicochemical.
Data set [7] in a line: Solubility in 100 mM bistrispropane buffer at pH 6.0 incubated for 18 hrs by UPLC analysis. It is filed as physicochemical.
The target of a further data set is T1, Calcitonin receptor (Homo sapiens, UniProt P30988).
T1 sequence (P30988 whole entry): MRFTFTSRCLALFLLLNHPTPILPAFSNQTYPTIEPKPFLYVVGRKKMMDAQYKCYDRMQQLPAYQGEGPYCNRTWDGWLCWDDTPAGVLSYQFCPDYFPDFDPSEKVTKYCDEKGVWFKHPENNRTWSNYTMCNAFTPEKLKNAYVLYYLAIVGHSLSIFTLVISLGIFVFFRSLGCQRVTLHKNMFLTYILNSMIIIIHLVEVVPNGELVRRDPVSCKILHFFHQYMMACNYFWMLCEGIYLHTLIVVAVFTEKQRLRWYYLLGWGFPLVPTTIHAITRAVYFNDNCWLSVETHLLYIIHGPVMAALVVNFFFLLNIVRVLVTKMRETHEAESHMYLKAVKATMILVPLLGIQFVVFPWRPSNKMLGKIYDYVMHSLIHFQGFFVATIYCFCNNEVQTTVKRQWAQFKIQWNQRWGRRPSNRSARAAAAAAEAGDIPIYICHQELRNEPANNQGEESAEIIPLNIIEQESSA
In words: Agonist activity at human calcitonin receptor expressed in BHK570 cells assessed as increase in intracellular cAMP concentration incubated for 3 hrs in absence of albumin by CRE luciferase reporter gene assay. The format is functional, cell-based.

In data set [8] the target is T2, Amylin receptor AMY3; CALCR/RAMP3 (Homo sapiens, UniProt O60896+P30988).
T2 sequence (P30988 whole entry): T1 sequence (P30988 whole entry)
T2 sequence (O60896 whole entry): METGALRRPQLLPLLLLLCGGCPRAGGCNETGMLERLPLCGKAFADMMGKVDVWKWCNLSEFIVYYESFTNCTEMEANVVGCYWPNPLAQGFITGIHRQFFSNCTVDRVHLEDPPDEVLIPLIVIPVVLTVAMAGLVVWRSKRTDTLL
In words: Agonist activity at human amylin receptor expressed in BHK570 cells co-expressing RAMP3 assessed as increase in intracellular cAMP concentration incubated for 3 hrs in absence of albumin by CRE luciferase reporter gene assay. It is filed as functional, cell-based. For orientation: In a reporter assay the amount or activity of a reporter protein is the signal.

In brackets after ≈: the same amount, converted by molar mass. Peptide text beside a SMILES is read from it. * marks the point of attachment. C18 diacid = O=C(O)CCCCCCCCCCCCCCCCC(=O)*

As a reminder, the solubility is the dissolved amount per volume that the medium holds. For the compound `CC[C@@H](C)[C@H](NC(=O)[C@H](C)NC(=O)[C@@H](NC(=O)[C@H](CO)NC(=O)[C@@H](NC(=O)[C@H](CCC(=O)O)NC(=O)[C@H](CO)NC(=O)[C@H](C)NC(=O)[C@H](CCC(=O)O)NC(=O)CCCCCCCCCCCCCCCCC(=O)O)[C@H](C)CC)[C@@H](C)O)C(=O)N[C@@H](CC(C)C)C(=O)NCC(=O)N[C@@H](CCCNC(=N)N)C(=O)N[C@@H](CC(C)C)C(=O)N[C@@H](CO)C(=O)N[C@@H](C)C(=O)N[C@@H](CCC(=O)O)C(=O)N[C@@H](CC(C)C)C(=O)N[C@@H](Cc1cnc[nH]1)C(=O)N[C@@H](CCC(=O)O)C(=O)N[C@@H](CC(C)C)C(=O)N[C@@H](C)C(=O)N[C@H](C(=O)N[C@@H](CC(C)C)C(=O)N1CCC[C@H]1C(=O)N[C@@H](CCCNC(=N)N)C(=O)N[C@H](C(=O)N[C@@H](CCC(=O)O)C(=O)N[C@H](C(=O)NCC(=O)N1CCC[C@H]1C(=O)N[C@@H](CCC(=O)O)C(=O)N[C@@H](CO)C(=O)N1CCC[C@H]1C(N)=O)[C@@H](C)O)[C@@H](C)O)[C@@H](C)O`, the solubility at 18 h in data set [1], in [2], in data set [3], in data set [4], in [5] and in [6] was no less than 200 µM throughout. Further, in [7], the solubility at 18 h is no less than 200 µM.
Take `CC(C)C[C@H](NC(=O)[C@H](CCCNC(=N)N)NC(=O)CNC(=O)[C@H](CC(C)C)NC(=O)[C@@H](NC(=O)[C@H](C)NC(=O)[C@@H](NC(=O)[C@H](CO)NC(=O)[C@H](CC(C)C)NC(=O)[C@H](CCC(=O)O)NC(=O)[C@H](CO)NC(=O)[C@H](C)NC(=O)CC[C@H](NC(=O)CCCCCCCCCCCCCCCCCCC(=O)O)C(=O)O)[C@@H](C)O)C(C)C)C(=O)N[C@@H](CO)C(=O)N[C@@H](CCC(N)=O)C(=O)N[C@@H](CCC(=O)O)C(=O)N[C@@H](CC(C)C)C(=O)N[C@@H](Cc1cnc[nH]1)C(=O)N[C@@H](CCC(=O)O)C(=O)N[C@@H](CC(C)C)C(=O)N[C@@H](CCC(N)=O)C(=O)N[C@H](C(=O)N[C@@H](Cc1ccc(O)cc1)C(=O)N1CCC[C@H]1C(=O)N[C@@H](CCCNC(=N)N)C(=O)N[C@H](C(=O)N[C@@H](CCC(=O)O)C(=O)N[C@H](C(=O)NCC(=O)N[C@@H](CO)C(=O)NCC(=O)N[C@H](C(=O)N[C@@H](Cc1ccc(O)cc1)C(N)=O)[C@@H](C)O)[C@@H](C)O)[C@@H](C)O)[C@H](C)O`: the solubility at 18 h is no less than 200 µM in data set [1]; 7 µM (≈ 27.6 µg/mL) in data set [2]; no less than 200 µM in data set [3]; no less than 200 µM in data set [4]; no less than 200 µM in data set [5]; no less than 200 µM in data set [6]. Besides, the solubility at 18 h in [7] was no less than 200 µM.
As a reminder, the EC50 is the midpoint of the concentration-response curve. For the compound `CC[C@H](C)[C@H](NC(=O)[C@H](C)NC(=O)[C@@H](NC(=O)[C@H](CO)NC(=O)[C@@H](NC(=O)[C@H](CCC(=O)O)NC(=O)[C@H](CO)NC(=O)[C@H](C)NC(=O)[C@H](CCC(=O)O)NC(=O)CCCCCCCCCCCCCCCCC(=O)O)[C@@H](C)CC)[C@@H](C)O)C(=O)N[C@H](C(=O)NCC(=O)N[C@@H](CCCNC(=N)N)C(=O)N[C@@H](CC(C)C)C(=O)N[C@@H](CO)C(=O)N[C@@H](C)C(=O)N[C@@H](CCC(=O)O)C(=O)N[C@@H](CC(C)C)C(=O)N[C@@H](Cc1cnc[nH]1)C(=O)N[C@@H](CCC(=O)O)C(=O)N[C@@H](CC(C)C)C(=O)N[C@@H](C)C(=O)N[C@H](C(=O)N[C@@H](CC(C)C)C(=O)N1CCC[C@H]1C(=O)N[C@@H](CCCNC(=N)N)C(=O)N[C@H](C(=O)N[C@@H](CCC(=O)O)C(=O)N[C@H](C(=O)NCC(=O)N1CCC[C@H]1C(=O)N[C@@H](CCC(=O)O)C(=O)N[C@@H](CO)C(=O)N1CCC[C@H]1C(N)=O)[C@@H](C)O)[C@@H](C)O)[C@@H](C)O)[C@@H](C)CC` ({C18 diacid}-EASEISTAIIGRLSAELHELATLPRTETGPESP-NH2), the solubility at 18 h in data set [1], in [2], in [3], in data set [4], in data set [5] and in [6] was no less than 200 µM each time. The compound also yielded a solubility at 18 h in [7] of no less than 200 µM. In addition, the EC50 on Calcitonin receptor was 5 pM; in data set [8], 0.01 nM.
`CC(C)C[C@H](NC(=O)[C@H](C)NC(=O)[C@H](C)NC(=O)[C@@H](NC(=O)[C@H](CO)NC(=O)[C@H](CC(C)C)NC(=O)[C@H](CCC(=O)O)NC(=O)[C@H](CO)NC(=O)[C@H](C)NC(=O)[C@H](CCC(=O)O)NC(=O)CCCCCCCCCCCCCCCCC(=O)O)[C@@H](C)O)C(=O)NCC(=O)N[C@@H](CCCNC(=N)N)C(=O)N[C@@H](CC(C)C)C(=O)N[C@@H](CO)C(=O)N[C@@H](C)C(=O)N[C@@H](CCC(=O)O)C(=O)N[C@@H](CC(C)C)C(=O)N[C@@H](Cc1cnc[nH]1)C(=O)N[C@@H](CCC(=O)O)C(=O)N[C@@H](CC(C)C)C(=O)N[C@@H](C)C(=O)N[C@H](C(=O)N[C@@H](Cc1ccc(O)cc1)C(=O)N1CCC[C@H]1C(=O)N[C@@H](CCCNC(=N)N)C(=O)N[C@H](C(=O)N[C@@H](CCC(=O)O)C(=O)N[C@H](C(=O)NCC(=O)N1CCC[C@H]1C(=O)N[C@@H](CCC(=O)O)C(=O)N[C@@H](CO)C(=O)N1CCC[C@H]1C(N)=O)[C@@H](C)O)[C@@H](C)O)[C@@H](C)O` ({C18 diacid}-EASELSTAALGRLSAELHELATYPRTETGPESP-NH2): the EC50 at Calcitonin receptor is 7 pM; in [8] it was 0.011 nM.
On to `CC(C)C[C@H](NC(=O)[C@H](CCCNC(=N)N)NC(=O)CNC(=O)[C@H](CC(C)C)NC(=O)[C@@H](NC(=O)[C@H](C)NC(=O)[C@@H](NC(=O)[C@H](CO)NC(=O)[C@@H](NC(=O)[C@H](CCC(=O)O)NC(=O)[C@H](CO)NC(=O)[C@H](C)NC(=O)[C@H](CCC(=O)O)NC(=O)CCCCCCCCCCCCCCCCC(=O)O)C(C)C)[C@@H](C)O)C(C)C)C(=O)N[C@@H](CO)C(=O)N[C@@H](C)C(=O)N[C@@H](CCC(=O)O)C(=O)N[C@@H](CC(C)C)C(=O)N[C@@H](Cc1cnc[nH]1)C(=O)N[C@@H](CCC(=O)O)C(=O)N[C@H](C(=O)N[C@@H](C)C(=O)N[C@H](C(=O)N[C@@H](CC(C)C)C(=O)N1CCC[C@H]1C(=O)N[C@@H](CCCNC(=N)N)C(=O)N[C@H](C(=O)N[C@@H](CCC(=O)O)C(=O)N[C@H](C(=O)NCC(=O)N1CCC[C@H]1C(=O)N[C@@H](CCC(=O)O)C(=O)N[C@@H](CO)C(=O)N1CCC[C@H]1C(N)=O)[C@@H](C)O)[C@@H](C)O)[C@@H](C)O)C(C)C` ({C18 diacid}-EASEVSTAVLGRLSAELHEVATLPRTETGPESP-NH2), for which the solubility at 18 h in data set [1], in data set [4], in data set [5], in data set [6] and in [7] was no less than 200 µM each time. In addition, the EC50 at Calcitonin receptor is 54 pM; in data set [8], 0.023 nM.
